US20180256509A1, “Nanoparticle Compositions and Methods Thereof to Restore Vascular Integrity” (priority 2014, published 2018)

Test system: C57BL mice infused with LPS
Test: Endotoxemia study: vascular permeability (intravascular-extravascular intensity)
Type: in vivo
Conditions: 2 hours after LPS infusion; 10 mg/kg; FIG. 10
Procedure: In this study, the effect of treatment with curcumin-selenium nanoparticles was evaluated in animal models with endotoxemia. In particular, C57BL mice were first infused with 10 mg/kg of LPS (Lipopolysaccharides from E. coli serotype 0128:B12, Sigma Aldrich St. Louis, Mo.). The mice were then separated into 5 treatment groups: 1) no treatment; 2) control NP 10 mg/kg; 3) curcumin 10 mg/kg; 4) curcumin-NP 10 mg/kg (dose calculated based on curcumin concentration); and 5) curcumin-selenium-NP 10 mg/kg (dose calculated based on curcumin concentration). Treatments were administered 30 minutes after LPS infusion. No additional fluid therapies were applied, and food and water was available during observation time points. […] Vascular integrity for all treatment groups was also evaluated at baseline and 2 hours after LPS infusion. Additionally, other end points related to systemic and microvascular function (i.e., heart rate, arteriolar diameter, arteriolar blood flow, and functional capillary density) were evaluated for 4 of the treatment groups (no treatment, control NP 10, curcumin-NP 10 mg/kg, and curcumin-selenium-NP 10 mg/kg treatment groups) at baseline, and 2, 4, 6, 12, and 24 hours after LPS infusion.

Compound: COc1cc(/C=C/C(=O)CC(=O)/C=C/c2ccc(O)c(OC)c2)ccc1O [curcumin]
- vascular permeability compared with the untreated and control NP treatment groups: markedly less vascular permeability
